These are literature values, as cited in PMC10799843 (Molecular pharmaceutics, 2023).

In this series the test system is denatured collagen. The note with it: control scrambled peptide.

As to “Cy5.5-KGGG-OfGGOfGfGfOfOGOfGOOfGGOOffG [^SCHP]”, the Collagen binding affinity entry was “lacking in collagen binding affinity”.
